For four molecules, IC50 results are on record in PubChem BioAssay AID652232 (The Scripps Research Institute Molecular Screening Center, 2013).

Activity calls are given as the source filed them.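 The calls were made as follows: active = blocks protein phosphatase 1 activity with an IC50 half-maximal inhibitory concentration below 10 µM; inactive = IC50 of 10 µM or higher.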

By IC50 is commonly meant the concentration that gives 50% inhibition.

The target in the test is Serine/threonine-protein phosphatase PP1-alpha catalytic subunit (Homo sapiens) (UniProt P62136). In words: PP1alpha inhibitors on histone substrate, IC50 – biochemical, radiolabel, dose response, powder samples, late-stage follow-up (AID 652232). Conditions: purified PP1alpha, 33P-phosphohistone dephosphorylation, scintillation.
Chain of Serine/threonine-protein phosphatase PP1-alpha catalytic subunit (Homo sapiens) (P62136 whole entry, looked up): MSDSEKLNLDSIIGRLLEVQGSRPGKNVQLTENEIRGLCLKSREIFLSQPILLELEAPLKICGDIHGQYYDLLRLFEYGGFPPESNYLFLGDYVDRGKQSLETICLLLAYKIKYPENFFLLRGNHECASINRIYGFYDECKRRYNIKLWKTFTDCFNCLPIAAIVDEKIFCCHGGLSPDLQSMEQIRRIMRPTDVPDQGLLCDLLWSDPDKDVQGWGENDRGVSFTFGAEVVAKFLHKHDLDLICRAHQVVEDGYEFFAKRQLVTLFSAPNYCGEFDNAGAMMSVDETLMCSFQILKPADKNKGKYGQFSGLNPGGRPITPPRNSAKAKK
For the molecule `CC1CCN(C(c2ccccn2)c2cc(Cl)c3cccnc3c2O)CC1` (centres undefined), the IC50 result is “inactive”.

Turning to `CC(C)(C)OC(=O)N1CCN(C(c2ccccn2)c2cc(Cl)c3cccnc3c2O)CC1` (centres undefined), the concentration for half-maximal inhibition (IC50) turned out to be 44.2 µM.

For the molecule `Oc1c(C(c2ccccn2)N2CCN(c3ccccc3F)CC2)cc(Cl)c2cccnc12` (centres undefined), the IC50 result was “inactive”.

For `Oc1c(C(c2ccccn2)N2CCC(Cc3ccccc3)CC2)cc(Cl)c2cccnc12` (centres undefined), the IC50 is 27 µM.
